Results from patent publication US6737383B1, “Herbicidal oxadiazolidines” (priority 1999, dated 2004).

Experiments:
rice = experiment: Test B flood test rice; assay type: in vivo, Oryza sativa
Procedure, shortened: (§1)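 Read-out is a visual response score from 0 (no effect) to 10 (complete control), assigned by comparison with untreated controls. Treatment was applied at the 2-leaf stage, and plants stayed in the greenhouse for twelve to sixteen days before scoring.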

pigweed = experiment: Test B pre/postemergence pigweed; assay type: in vivo, Amaranthus retroflexus
Procedure, shortened: (§2)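 Test chemicals in a non-phytotoxic solvent mixture with surfactant were sprayed preemergence onto planted seeds and postemergence onto plants 2 to 18 cm tall (1- to 4-leaf stage). After twelve to sixteen days in a greenhouse, injury was visually rated against untreated controls from 0 (no effect) to 10 (complete control).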

wild oat = experiment: Test B pre/postemergence wild oat; assay type: in vivo, Avena fatua
Procedure, shortened: as §2

wheat = experiment: Test B pre/postemergence wheat; assay type: in vivo, Triticum aestivum
Procedure, shortened: as §2

surinam grass = experiment: Test B pre/postemergence surinam grass; assay type: in vivo, Brachiaria decumbens
Procedure, shortened: as §2

bedstraw = experiment: Test B pre/postemergence bedstraw; assay type: in vivo, Galium aparine; conditions: Postemergence, Rate 500 g/ha; scale of 0 to 10 where 0 is no effect and 10 is complete control
Procedure, shortened: as §2

smallflower flatsedge = experiment: Test B flood test smallflower flatsedge; assay type: in vivo, Cyperus difformis
Procedure, shortened: as §1

sugar beet = experiment: Test B pre/postemergence sugar beet; assay type: in vivo, Beta vulgaris
Procedure, shortened: as §2

velvetleaf = experiment: Test B pre/postemergence velvetleaf; assay type: in vivo, Abutilon theophrasti
Procedure, shortened: as §2

duck salad = experiment: Test B flood test duck salad; assay type: in vivo, Heteranthera limosa
Procedure, shortened: as §1

soybean = experiment: Test B pre/postemergence soybean; assay type: in vivo, Glycine max
Procedure, shortened: as §2

purple nutsedge = experiment: Test B pre/postemergence purple nutsedge; assay type: in vivo, Cyperus rotundus
Procedure, shortened: as §2

rape = experiment: Test B pre/postemergence rape; assay type: in vivo, Brassica napus
Procedure, shortened: as §2

corn = experiment: Test B pre/postemergence corn; assay type: in vivo, Zea mays
Procedure, shortened: as §2

cocklebur = experiment: Test B pre/postemergence cocklebur; assay type: in vivo, Xanthium strumarium
Procedure, shortened: as §2

giant foxtail = experiment: Test B pre/postemergence giant foxtail; assay type: in vivo, Setaria faberii
Procedure, shortened: as §2

[1] = Rate 62 g/ha, flood test species, Pre-emergence, visual evaluation after twelve to sixteen days
[2] = Rate 125 g/ha, under heading Pre-emergence, flood test species, visual evaluation after twelve to sixteen days
[3] = Rate 250 g/ha, Pre-emergence, flood-test species, scale 0 to 10, 0 is no effect, 10 is complete control
[4] = Rate 500 g/ha, Pre-emergence, flood test species, scale 0 to 10 (0 no effect, 10 complete control)
[5] = Postemergence, Rate 250 g/ha, scale 0 to 10, 0 is no effect, 10 is complete control
[6] = Postemergence, Rate 500 g/ha, scale of 0 to 10 where 0 is no effect and 10 is complete control
[7] = Preemergence, Rate 62 g/ha, scale 0 to 10 (0 no effect, 10 complete control)
[8] = Preemergence, Rate 125 g/ha, scale of 0 to 10 where 0 is no effect and 10 is complete control
[9] = Preemergence, Rate 250 g/ha, scale of 0 to 10 where 0 is no effect and 10 is complete control
[10] = Preemergence, Rate 500 g/ha, scale of 0 to 10 where 0 is no effect and 10 is complete control
[11] = Rate 62 g/ha, Postemergence, scale of 0 to 10 where 0 is no effect and 10 is complete control
[12] = Postemergence, Rate 125 g/ha, scale 0 to 10, 0 is no effect, 10 is complete control

CC(C)N(C(=O)n1oc(=O)[nH]c1=O)c1ccc(F)cc1F [Compound 391]
0: Plant response rating, Rice (0 to 10 scale, 0 is no effect, 10 is complete control) (rice; [1]) | Rice plant response rating (0 to 10 scale, 0 is no effect, 10 is complete control) (rice; [2]) | Rice plant response rating (rice; [3]) | Rice plant response rating (rice; [4]) | Plant response rating, Redroot pigweed (pigweed; [5]) | Redroot pigweed plant response rating (pigweed; [6]) | Plant response rating, Redroot pigweed (pigweed; [7]) | Plant response rating, Redroot pigweed (pigweed; [8]) | Redroot pigweed plant response rating (pigweed; [9]) | Redroot pigweed plant response rating (pigweed; [10]) | Redroot pigweed plant response rating (pigweed; [11]) | Plant response rating, Wild oats (wild oat; [5]) | Wild oats plant response rating (wild oat; [6]) | Plant response rating, Wild oats (wild oat; [7]) | Plant response rating, Wild oats (wild oat; [8]) | Wild oats plant response rating (wild oat; [9]) | Wild oats plant response rating (wild oat; [10]) | Wild oats plant response rating (wild oat; [11]) | Plant response rating, Wheat (wheat; [5]) | Wheat plant response rating (wheat; [6]) | Plant response rating, Wheat (wheat; [7]) | Plant response rating, Wheat (wheat; [8]) | Wheat plant response rating (wheat; [9]) | Wheat plant response rating (wheat; [10]) | Wheat plant response rating (wheat; [11]) | Plant response rating, B. signalgrass (surinam grass; [12]) | Plant response rating, B. signalgrass (surinam grass; [5]) | B. signalgrass plant response rating (surinam grass; [6]) | Plant response rating, B. signalgrass (surinam grass; [7]) | Plant response rating, B. signalgrass (surinam grass; [8]) | B. signalgrass plant response rating (surinam grass; [9]) | B. signalgrass plant response rating (surinam grass; [10]) | B. signalgrass plant response rating (surinam grass; [11]) | Bedstraw plant response rating (bedstraw) | Plant response rating, S. Flatsedge (0 to 10 scale, 0 is no effect, 10 is complete control) (smallflower flatsedge; [1]) | S. Flatsedge plant response rating (0 to 10 scale, 0 is no effect, 10 is complete control) (smallflower flatsedge; [2]) | S. Flatsedge plant response rating (smallflower flatsedge; [3]) | S. Flatsedge plant response rating (smallflower flatsedge; [4]) | Plant response rating, Sugarbeets (sugar beet; [5]) | Sugarbeets plant response rating (sugar beet; [6]) | Plant response rating, Sugarbeets (sugar beet; [7]) | Plant response rating, Sugarbeets (sugar beet; [8]) | Sugarbeets plant response rating (sugar beet; [9]) | Sugarbeets plant response rating (sugar beet; [10]) | Sugarbeets plant response rating (sugar beet; [11]) | Plant response rating, Velvetleaf (velvetleaf; [5]) | Velvetleaf plant response rating (velvetleaf; [6]) | Plant response rating, Velvetleaf (velvetleaf; [7]) | Plant response rating, Velvetleaf (velvetleaf; [8]) | Velvetleaf plant response rating (velvetleaf; [9]) | Velvetleaf plant response rating (velvetleaf; [10]) | Velvetleaf plant response rating (velvetleaf; [11]) | Plant response rating, Ducksalad (0 to 10 scale, 0 is no effect, 10 is complete control) (duck salad; [1]) | Ducksalad plant response rating (0 to 10 scale, 0 is no effect, 10 is complete control) (duck salad; [2]) | Ducksalad plant response rating (duck salad; [3]) | Ducksalad plant response rating (duck salad; [4]) | Plant response rating, Soybean (soybean; [5]) | Soybean plant response rating (soybean; [6]) | Plant response rating, Soybean (soybean; [7]) | Plant response rating, Soybean (soybean; [8]) | Soybean plant response rating (soybean; [9]) | Soybean plant response rating (soybean; [10]) | Soybean plant response rating (soybean; [11]) | Plant response rating, Nutsedge (purple nutsedge; [5]) | Nutsedge plant response rating (purple nutsedge; [6]) | Plant response rating, Nutsedge (purple nutsedge; [7]) | Plant response rating, Nutsedge (purple nutsedge; [8]) | Nutsedge plant response rating (purple nutsedge; [9]) | Nutsedge plant response rating (purple nutsedge; [10]) | Nutsedge plant response rating (purple nutsedge; [11]) | Plant response rating, Rape (rape; [5]) | Rape plant response rating (rape; [6]) | Plant response rating, Rape (rape; [7]) | Plant response rating, Rape (rape; [8]) | Rape plant response rating (rape; [9]) | Rape plant response rating (rape; [10]) | Rape plant response rating (rape; [11]) | Plant response rating, Corn (corn; [12]) | Plant response rating, Corn (corn; [5]) | Corn plant response rating (corn; [6]) | Plant response rating, Corn (corn; [7]) | Plant response rating, Corn (corn; [8]) | Corn plant response rating (corn; [9]) | Corn plant response rating (corn; [10]) | Corn plant response rating (corn; [11]) | Plant response rating, Cocklebur (cocklebur; [12]) | Plant response rating, Cocklebur (cocklebur; [5]) | Cocklebur plant response rating (cocklebur; [6]) | Plant response rating, Cocklebur (cocklebur; [7]) | Plant response rating, Cocklebur (cocklebur; [8]) | Cocklebur plant response rating (cocklebur; [9]) | Cocklebur plant response rating (cocklebur; [10]) | Cocklebur plant response rating (cocklebur; [11]) | Plant response rating, Giant foxtail (giant foxtail; [12]) | Plant response rating, Giant foxtail (giant foxtail; [5]) | Giant foxtail plant response rating (giant foxtail; [6]) | Plant response rating, Giant foxtail (giant foxtail; [7]) | Plant response rating, Giant foxtail (giant foxtail; [8]) | Giant foxtail plant response rating (giant foxtail; [9]) | Giant foxtail plant response rating (giant foxtail; [10]) | Giant foxtail plant response rating (giant foxtail; [11])
